Structures are written as SMILES.

Usually IC50 stands for the point on the concentration scale where inhibition reaches its midpoint. A higher IC50 goes with a need for much substance.

Experiment [1] has as its target T1, Delta-type opioid receptor (Homo sapiens, UniProt P41143). The experiment in a line: Binding inhibition of [3H]- -naltrindole (0.15 nM) to membranes in CHO cells expressing Opioid receptor delta 1. The class given is cell-based.
Experiment [2] concerns the target Kappa-type opioid receptor (Cavia porcellus, UniProt P41144). The experiment in a line: Binding affinity towards Opioid receptor kappa 1 using [3H]- U-69,593 (1.5 nM) as radioligand in guinea pig brain membranes. In kind it is cell membranes, Membrane.
In a further experiment the target is Mu-type opioid receptor (Rattus norvegicus, UniProt P33535). The experiment in a line: Binding affinity towards mu opioid receptor using [3H]- -DAMGO (1.5 nM) as radioligand in rat brain membranes. In kind it is cell membranes.
The target in experiment [3] is T1, Delta-type opioid receptor. The experiment in a line: Compound was tested for inhibition of binding of [3H]- -naltrindole (0.15 nM) to membranes from CHO cells expressing human delta opioid receptor. In kind it is cell membranes.

T1 sequence (P41143 whole entry): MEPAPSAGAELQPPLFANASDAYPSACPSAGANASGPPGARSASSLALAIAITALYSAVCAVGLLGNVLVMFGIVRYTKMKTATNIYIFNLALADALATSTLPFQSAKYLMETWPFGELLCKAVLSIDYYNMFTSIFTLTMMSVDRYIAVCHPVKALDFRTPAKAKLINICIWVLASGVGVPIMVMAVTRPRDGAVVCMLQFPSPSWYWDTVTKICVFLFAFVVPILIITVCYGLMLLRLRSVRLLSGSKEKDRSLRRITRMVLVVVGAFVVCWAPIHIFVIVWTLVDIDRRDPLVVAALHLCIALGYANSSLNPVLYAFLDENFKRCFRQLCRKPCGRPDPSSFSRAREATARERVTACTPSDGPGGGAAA
Chain of Kappa-type opioid receptor (P41144 whole entry): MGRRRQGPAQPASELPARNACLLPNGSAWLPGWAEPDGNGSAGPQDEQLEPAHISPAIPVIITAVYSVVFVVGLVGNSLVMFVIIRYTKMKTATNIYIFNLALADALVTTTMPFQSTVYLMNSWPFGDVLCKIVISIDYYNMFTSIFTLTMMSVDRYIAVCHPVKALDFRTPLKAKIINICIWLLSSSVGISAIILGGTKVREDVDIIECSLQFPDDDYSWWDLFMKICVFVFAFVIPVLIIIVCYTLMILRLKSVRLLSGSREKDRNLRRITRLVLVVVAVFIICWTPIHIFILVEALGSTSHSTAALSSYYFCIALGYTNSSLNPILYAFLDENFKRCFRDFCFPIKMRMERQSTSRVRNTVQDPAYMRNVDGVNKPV
Chain of Mu-type opioid receptor (P33535 whole entry): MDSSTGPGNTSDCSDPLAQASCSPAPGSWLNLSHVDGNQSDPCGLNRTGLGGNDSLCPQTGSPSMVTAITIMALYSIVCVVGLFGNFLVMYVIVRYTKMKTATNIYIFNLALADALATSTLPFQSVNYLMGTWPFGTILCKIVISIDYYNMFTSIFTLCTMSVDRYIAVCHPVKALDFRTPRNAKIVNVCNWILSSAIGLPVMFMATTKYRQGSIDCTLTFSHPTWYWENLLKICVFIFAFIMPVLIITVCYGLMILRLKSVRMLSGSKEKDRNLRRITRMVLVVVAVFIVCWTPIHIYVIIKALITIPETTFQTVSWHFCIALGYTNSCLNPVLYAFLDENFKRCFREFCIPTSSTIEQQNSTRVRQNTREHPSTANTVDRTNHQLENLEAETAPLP

With `C=CCN1CCN([C@@H](c2ccccc2)c2ccc(C(=O)N(CC)CC)cc2)CC1`, the IC50 was 0.0041 µM in experiment [1], over 10 µM in experiment [2] and over 10 µM on Mu-type opioid receptor. For `C=CCN1CCN([C@H](c2ccc(C(=O)N(CC)CC)cc2)c2cccc(OC)c2)CC1`, the results for the IC50 (in experiment [1]; in experiment [2]; on Mu-type opioid receptor) were 0.0074 µM, over 10 µM and over 10 µM, respectively. On to `C=CCN1CCN(C(c2ccccc2)c2ccc(C(=O)N(CC)CC)cc2)CC1` (configuration not stated), for which the figures for the IC50 (on Mu-type opioid receptor; in experiment [3]) were over 10 µM and 0.005 µM, respectively. In the case of `C=CCN1CCN(C(c2ccccc2)c2ccc(C(=O)Nc3ccc(OC)cc3)cc2)CC1` (configuration not stated), the IC50 in experiment [1] came to 1.9 µM.

In experiment [1], `C=CCN1CCN(C(c2ccccc2)c2ccc(-c3cccnc3)cc2)CC1` (configuration not stated) had an IC50 of 0.5 µM. Still for that read-out and setting: with `C=CCN1CCN(C(c2ccccc2)c2ccc(C(=O)NCC)cc2)CC1` (configuration not stated) the figure was 0.36 µM. Consider `C=CCN1CCN(C(c2ccccc2)c2ccc(C(=O)N(CCC)CC3CC3)cc2)CC1` (configuration not stated), for which the IC50 in experiment [1] was 0.003 µM; at Mu-type opioid receptor it was over 10 µM.

For `C=CCN1CCN(C(c2ccccc2)c2ccc(-c3cccs3)cc2)CC1` (configuration not stated), the IC50 in experiment [1] is 2.6 µM.

On to `C=CCN1CCN(C(c2ccccc2)c2ccc(C(=O)N3CCCCC3)cc2)CC1` (configuration not stated), for which the IC50 is 0.0824 µM in experiment [1] and over 21.6 µM at Mu-type opioid receptor.

The compound `C=CCN1CCN(C(c2ccccc2)c2ccc(C(=O)O)cc2)CC1` (configuration not stated) had an IC50 in experiment [1] of 8.1 µM. Regarding `C=CCN1CCN(C(c2ccccc2)c2ccc(C(=O)OC)cc2)CC1` (configuration not stated), the IC50 in experiment [1] worked out at 0.607 µM. Turning to `C=CCN1C[C@H](C)N(C(c2ccccc2)c2ccccc2)C[C@H]1C`, the IC50 in experiment [1] was 0.42 µM; at Mu-type opioid receptor it was 0.38 µM. The compound `C=CCN1CCN(C(c2ccccc2)c2ccc(-c3ccccn3)cc2)CC1` (configuration not stated) yielded a half-inhibitory concentration (IC50) in experiment [1] of 0.25 µM. As for `C=CCN1CCN(C(c2ccccc2)c2ccc(C(=O)N(C)C)cc2)CC1` (configuration not stated), the IC50 in experiment [1] is 0.0443 µM; on Mu-type opioid receptor it was over 50 µM. In the case of `C=CCN1CCN(C(c2ccccc2)c2ccc(C(=O)N(CCC)CCC)cc2)CC1` (configuration not stated), the half-maximal inhibitory concentration (IC50) worked out at 0.0072 µM in experiment [1] and 41.6 µM at Mu-type opioid receptor.

On to `C=CCN1CCN(C(c2ccccc2)c2ccc(C(=O)N(Cc3cccnc3)CC(OCCC)OCCC)cc2)CC1` (configuration not stated), for which the IC50 was 0.004 µM in experiment [1] and over 10 µM on Mu-type opioid receptor.

As for `C=CCN1CCN(C(c2ccccc2)c2ccc(-c3ccccc3)cc2)CC1` (configuration not stated), the IC50 in experiment [1] is 1.72 µM.

As to `C=CCN1CCN(C(c2ccccc2)c2ccc(C(=O)OCC)cc2)CC1` (configuration not stated), the IC50 in experiment [1] was determined as 1.39 µM. `C=CCN1C[C@H](C)N([C@H](c2ccccc2)c2ccc(C(=O)N(CC)CC)cc2)C[C@H]1C`: the IC50 is 0.0011 µM in experiment [1], over 10 µM in experiment [2] and 6.5 µM at Mu-type opioid receptor. Regarding `C=CCN1C[C@H](C)N([C@@H](c2ccc(C(=S)N(CC)CC)cc2)c2cccc(OC)c2)C[C@H]1C`, the IC50 in experiment [1] came out at 0.0053 µM; in experiment [2], 8.6 µM; on Mu-type opioid receptor, 6.3 µM. For the compound `C=CCN1C[C@H](C)N([C@@H](c2ccc(C(=O)O)cc2)c2cccc(OC)c2)C[C@H]1C`, the IC50 was 0.45 µM in experiment [1] and over 10 µM at Mu-type opioid receptor. The like results for `C=CCN1C[C@H](C)N([C@@H](c2ccc(C(=O)OC)cc2)c2cccc(OC)c2)C[C@H]1C` were, in that order, 0.24 µM and 3.6 µM. Take `C=CCN1C[C@H](C)N([C@@H](c2ccc(-c3ccccn3)cc2)c2cccc(OC)c2)C[C@H]1C`: the IC50 in experiment [1] was found to be 0.022 µM; in experiment [2], 2.1 µM; at Mu-type opioid receptor, 6.4 µM.

The values above are taken from ChEMBL document CHEMBL1132049, “Synthesis of novel analogues of the delta opioid ligand SNC-80 using REM resin” (Bioorg Med Chem Lett, 1999).
